Where two headings read alike, the source gives them in different places.
Columns and labels:
229E Mpro = 229E Mpro (Human coronavirus 229E, UniProt P0C6X1); assay: 229E Mpro enzymatic assay; assay type: biochemical, HCoV 229E
Experimental: (§1) Compounds were assayed using standard methods to assess compound activity and IC50. As an exemplary for assessment of the SARS-COV2 Mpro, the C-His6-tagged Mpro (NC_045512) was cloned, expressed in E. coli and purified. The assay buffer contained 20 mM of Tris-HCl (pH 7.3), 100 mM of NaCl, 1 mM of EDTA, 5 mM of TCEP and 0.1% BSA. The final concentrations of the Mpro protein and substrate were 25 nM and 25 μM, respectively, in the Mpro enzymatic assay. The Km of the Mpro substrate for the protease was 13.5 μM.
(§2) The compounds were added to an assay plate. For 100% inhibition control (HPE, hundred percent effect), 1 μM GC376 was added. For no inhibition control (ZPE, zero percent effect), no compound was added.
(§3) IC50 values of compounds were calculated with the GraphPad Prism software using the nonlinear regression model of log(inhibitor) vs. response—Variable slope (four parameters). The inhibition activity was calculated using the formula below, IC50 values is calculated using the Inhibition % data.
(§4) [formula] • #HEP: Hundred percent effect controls. Containing substrate+enzyme+1 μM GC376. • ZPE: Zero percent effective controls. Containing enzyme+substrate, no compound. • Sample: Compound activity testing wells. Containing compound+enzyme+substrate. • BG: Compound background control wells. Containing compound+substrate, no enzyme.

SARS-COV2 Mpro = SARS-COV2 Mpro (Severe acute respiratory syndrome coronavirus 2, UniProt P0DTD1); assay: COVID-19 (nCoV-2019, SARS-CoV2) Mpro enzymatic assay; assay type: biochemical
Experimental: as §1, with “assay.” for “assay. The Km of the Mpro substrate for the protease was 13.5 μM.”
The compounds were added to an assay plate. For 100% inhibition control (HPE, hundred percent effect), 1 μM GC376 was added.
as §3
[formula] • #HEP: Hundred percent effect controls. […] Containing enzyme+substrate, no compound. • Sample: Compound activity testing wells. Containing compound+enzyme+substrate. • BG: Compound background control wells. Containing compound+substrate, no enzyme.

OC43 Mpro = OC43 Mpro (Human coronavirus OC43, UniProt P0C6X6); assay: OC43 Mpro enzymatic assay; assay type: biochemical, HCoV OC43
Chain of OC43 Mpro (P0C6X6 3247-3549): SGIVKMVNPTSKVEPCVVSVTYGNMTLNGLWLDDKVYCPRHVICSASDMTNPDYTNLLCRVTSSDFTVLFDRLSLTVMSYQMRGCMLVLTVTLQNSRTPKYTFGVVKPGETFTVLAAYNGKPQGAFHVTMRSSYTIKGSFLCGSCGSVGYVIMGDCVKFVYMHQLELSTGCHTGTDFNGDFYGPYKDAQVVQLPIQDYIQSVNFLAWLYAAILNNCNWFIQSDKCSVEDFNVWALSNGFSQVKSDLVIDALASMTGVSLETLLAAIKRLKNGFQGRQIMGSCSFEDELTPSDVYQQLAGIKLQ
Experimental: as §1, §2, §3, §4

HCoV 229E = HCoV 229E cytopathic effect (CPE) assay; assay type: cell-based; details: read-out: 229E CPE EC50
Experimental: Compounds were assayed using standard methods against multiple coronaviral strains, including HCoV 229E and OC43 strains. The antiviral activity of compounds was calculated based on the protection of the virus-induced CPE at each concentration normalized by the virus control.
Reagents and instruments used in this assay include luminescent cell viability assay kit CellTiter Glo (Promega) and Microplate Reader Synergy2 (BioTek).
Cytopathic effect (CPE) was measured by CellTiter Glo following the manufacturer's manual. The antiviral activity of compounds was calculated based on the protection of the virus-induced CPE at each concentration normalized by the virus control.
The cytotoxicity of compounds was assessed under the same conditions, but without virus infection, in parallel. Cell viability was measured with CellTiter Glo. The antiviral activity and cytotoxicity of compounds were expressed as % Inhibition and % Viability, respectively, and calculated with formulas.

[1] = Table 3, read-out: COVID-19 Mpro IC50
[2] = Table 5, read-out: COVID-19 Mpro IC50

Chain of 229E Mpro (P0C6X1 2966-3267): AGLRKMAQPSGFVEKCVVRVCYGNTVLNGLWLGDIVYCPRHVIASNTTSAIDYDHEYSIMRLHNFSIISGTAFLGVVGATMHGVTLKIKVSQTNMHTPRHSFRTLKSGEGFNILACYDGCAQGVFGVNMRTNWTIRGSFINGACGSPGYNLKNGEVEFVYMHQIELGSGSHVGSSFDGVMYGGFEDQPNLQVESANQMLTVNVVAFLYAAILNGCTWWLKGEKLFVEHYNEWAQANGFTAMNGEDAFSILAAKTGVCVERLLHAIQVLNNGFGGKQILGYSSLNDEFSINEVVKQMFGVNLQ

SMILES | IC50 (229E Mpro; Table 3) | IC50 (SARS-COV2 Mpro) | IC50 (OC43 Mpro; Table 3) | EC50 (HCoV 229E; Table 4, CellTiter Glo) | IC50 (SARS-COV2 Mpro; [1]) | EC50 (HCoV 229E) | IC50 (229E Mpro; Table 5) | IC50 (SARS-COV2 Mpro; [2]) | IC50 (OC43 Mpro; Table 5)
N#C[C@H](C[C@@H]1CC2(CC2)NC1=O)NC(=O)[C@H](CC1CC1)NC(=O)[C@H](Cc1cccc2ccccc12)NC(=O)OCc1ccccc1 [Compound 110, benzyl((S)-1-(((S)-1-(((S)-1-cyano-2-((R)-5-oxo-4-azaspiro[2.4]heptan-6-yl)ethyl)amino)-3-cyclopropyl-1-oxopropan-2-yl)amino)-3-(naphthalen-1-yl)-1-oxopropan-2-yl)carbamate] | < 2000 nM | < 2000 nM | < 2000 nM | < 2000 nM | – | – | – | – | –
CC(C)(C)[C@H](NC(=O)c1cnccn1)C(=O)N1C[C@H]2[C@@H]([C@H]1C(=O)N[C@H](C#N)C[C@@H]1CC3(CC3)NC1=O)C2(C)C [Compound 129, (1R,2S,5S)—N-[(1S)-1-cyano-2-[(6R)-5-oxo-4-azaspiro[2.4]heptan-6-yl]ethyl]-3-[(2S)-3,3-dimethyl-2-(pyrazine-2-carbonylamino)butanoyl]-6,6-dimethyl-3-azabicyclo[3.1.0]hexane-2-carboxamide] | < 2000 nM | < 2000 nM | < 2000 nM | < 2000 nM | – | – | – | – | –
CC(C)(C)[C@H](NC(=O)OCC(F)(F)F)C(=O)N1C[C@H]2[C@@H]([C@H]1C(=O)N[C@H](C#N)C[C@@H]1CC3(CC3)NC1=O)C2(C)C [Compound 132, 2,2,2-trifluoroethyl ((S)-1-((1R,2S,5S)-2-(((S)-1-cyano-2-((R)-5-oxo-4-azaspiro[2.4]heptan-6-yl)ethyl)carbamoyl)-6,6-dimethyl-3-azabicyclo[3.1.0]hexan-3-yl)-3,3-dimethyl-1-oxobutan-2-yl)carbamate] | < 2000 nM | – | < 2000 nM | – | < 2000 nM | < 2000 nM | – | – | –
COCCOC(=O)N[C@H](C(=O)N1C[C@H]2[C@@H]([C@H]1C(=O)N[C@H](C#N)C[C@@H]1CC3(CC3)NC1=O)C2(C)C)C(C)(C)C [Compound 133, 2-methoxyethyl ((S)-1-((1R,2S,5S)-2-(((S)-1-cyano-2-((R)-5-oxo-4-azaspiro[2.4]heptan-6-yl)ethyl)carbamoyl)-6,6-dimethyl-3-azabicyclo[3.1.0]hexan-3-yl)-3,3-dimethyl-1-oxobutan-2-yl)carbamate] | < 2000 nM | < 2000 nM | < 2000 nM | < 2000 nM | – | – | – | – | –
CC(C)(C)[C@H](NC(=O)OC1CCOC1)C(=O)N1C[C@H]2[C@@H]([C@H]1C(=O)N[C@H](C#N)C[C@@H]1CC3(CC3)NC1=O)C2(C)C (stereo partly drawn) [Compound 134, tetrahydrofuran-3-yl N-[(1S)-1-[(1R,2S,5S)-2-[[(1S)-1-cyano-2-[(6R)-5-oxo-4-azaspiro[2.4]heptan-6-yl]ethyl]carbamoyl]-6,6-dimethyl-3-azabicyclo[3.1.0]hexane-3-carbonyl]-2,2-dimethyl-propyl]carbamate] | < 2000 nM | < 2000 nM | < 2000 nM | < 2000 nM | – | – | – | – | –
CC(C)(C)C(=O)N[C@H](C(=O)N1C[C@H]2[C@@H]([C@H]1C(=O)N[C@H](C#N)C[C@@H]1CC3(CC3)NC1=O)C2(C)C)C(C)(C)C [Compound 135, (1R,2S,5S)—N-[(1S)-1-cyano-2-[(6R)-5-oxo-4-azaspiro[2.4]heptan-6-yl]ethyl]-3-[(2S)-2-(2,2-dimethylpropanoylamino)-3,3-dimethyl-butanoyl]-6,6-dimethyl-3-azabicyclo[3.1.0]hexane-2-carboxamide] | < 2000 nM | < 2000 nM | < 2000 nM | < 2000 nM | – | – | – | – | –
C[C@@H](OC1(C#N)CC1)[C@H](NC(=O)C(F)(F)F)C(=O)N1C[C@H]2[C@@H]([C@H]1C(=O)N[C@H](C#N)C[C@@H]1CC3(CC3)NC1=O)C2(C)C [Compound 335] | – | – | – | – | – | – | < 2000 nM | < 2000 nM | < 2000 nM
C[C@@H](OC(C)(C)C(F)(F)F)[C@H](NC(=O)C(F)(F)F)C(=O)N1C[C@H]2[C@@H]([C@H]1C(=O)N[C@H](C#N)C[C@@H]1CC(C)(C)NC1=O)C2(C)C [Compound 357, (1R,2S,5S)—N-[(1S)-1-cyano-2-[(3R)-5,5-dimethyl-2-oxo-pyrrolidin-3-yl]ethyl]-6,6-dimethyl-3-[(2S,3R)-2-[(2,2,2-trifluoroacetyl)amino]-3-(2,2,2-trifluoro-1,1-dimethyl-ethoxy)butanoyl]-3-azabicyclo[3.1.0]hexane-2-carboxamide] | – | – | – | – | – | – | < 2000 nM | < 2000 nM | < 2000 nM
C[C@@H](OC(C)(C)C(F)(F)F)[C@H](NC(=O)C(F)(F)F)C(=O)N1C[C@H]2[C@@H]([C@H]1C(=O)N[C@H](C#N)C[C@@H]1CC3(CC3)NC1=O)C2(C)C [Compound 358, (1R,2S,5S)—N-[(1S)-1-cyan-2-[(6R)-5-oxo-4-azaspiro[2.4]heptan-6-yl]ethyl]-6,6-dimethyl-3-[(2S,3R)-2-[(2,2,2-trifluoroacetyl)amino]-3-(2,2,2-trifluoro-1,1-dimethyl-ethoxy)butanoyl]-3-azabicyclo[3.1.0]hexane-2-carboxamide] | – | – | – | – | – | – | < 2000 nM | < 2000 nM | < 2000 nM
CC1(C)CCC(C[C@@H](C#N)NC(=O)[C@@H]2[C@@H]3[C@H](CN2C(=O)[C@@H](NC(=O)C(F)(F)F)C(C)(C)C)C3(C)C)C(=O)N1 (stereo partly drawn) [Compound 361, (1R,5S)—N-[(1S)-1-cyano-2-(6,6-dimethyl-2-oxo-3-piperidyl)ethyl]-3-[(2S)-3,3-dimethyl-2-[(2,2,2-trifluoroacetyl)amino]butanoyl]-6,6-dimethyl-3-azabicyclo[3.1.0]hexane-2-carboxamide] | 10000 to 30000 nM | – | < 2000 nM | – | < 2000 nM | – | – | – | –
CC(C)(C)[C@H](NC(=O)C(F)(F)F)C(=O)N1C[C@H]2[C@@H]([C@H]1C(=O)N[C@H](C#N)C[C@@H]1CC3(CCC3)NC1=O)C2(C)C [Compound 362, (1R,2S,5S)—N-[(1S)-1-cyano-2-[(7R)-6-oxo-5-azaspiro[3.4]octan-7-yl]ethyl]-3-[(2S)-3,3-dimethyl-2-[(2,2,2-trifluoroacetyl)amino]butanoyl]-6,6-dimethyl-3-azabicyclo[3.1.0]hexane-2-carboxamide] | < 2000 nM | – | < 2000 nM | – | < 2000 nM | – | – | – | –
CC(C)(C)[C@H](NC(=O)C(F)(F)F)C(=O)N1C[C@H]2[C@@H]([C@H]1C(=O)N[C@H](C#N)C[C@@]1(C)CC3(CC3)NC1=O)C2(C)C [Compound 375] | < 2000 nM | – | < 2000 nM | – | < 2000 nM | – | – | – | –
CO[C@H](C)[C@H](NC(=O)C(F)(F)F)C(=O)N1C[C@H]2[C@@H]([C@H]1C(=O)N[C@H](C#N)C[C@@H]1CC3(CCC3)NC1=O)C2(C)C [Compound 425, (1R,2S,5S)—N-[(1S)-1-cyano-2-[(7R)-6-oxo-5-azaspiro[3.4]octan-7-yl]ethyl]-3-[(2S,3R)-3-methoxy-2-[(2,2,2-trifluoroacetyl)amino]butanoyl]-6,6-dimethyl-3-azabicyclo[3.1.0]hexane-2-carboxamide] | – | – | – | – | – | – | < 2000 nM | < 2000 nM | < 2000 nM
C[C@@H](OC(C)(C)C)[C@H](NC(=O)C(F)(F)F)C(=O)N1C[C@H]2[C@@H]([C@H]1C(=O)N[C@H](C#N)C[C@@H]1CCCNC1=O)C2(C)C [Compound 431, (1R, 2S, 5S)-3-((2S, 3R)-3-(tert-butoxy)-2-(2,2,2-trifluoroacetamido)butanoyl)-N—((S)-1-cyano-2-((S)-2-oxopiperidin-3-yl)ethyl)-6,6-dimethyl-3-azabicyclo[3.1.0]hexane-2-carboxamide] | – | – | – | – | – | – | < 2000 nM | < 2000 nM | < 2000 nM

Reference: US20240277795A1, “INHIBITORS OF CYSTEINE PROTEASES AND METHODS OF USE THEREOF” (Pardes Biosciences, Inc., priority 2021, published 2024)
